Data: ChEMBL document CHEMBL2413072, “Synthesis and in vitro anticancer studies of novel C-2 arylidene congeners of lantadenes” (2013)

Experiments:
Format in all cases: functional
[1] = tested on: IGROV-1; assay: Growth inhibition of human IGROV1 cells assessed as cell growth at 10^-7 M by sulforhodamine B assay; settings: read-out: Activity
[2] = tested on: K562; assay: Growth inhibition of human K562 cells assessed as cell growth at 10^-7 M by sulforhodamine B assay; settings: read-out: Activity
[3] = Growth inhibition of human HCC2998 cells assessed as cell growth at 10^-6 M by sulforhodamine B assay; settings: HCC 2998, read-out: Activity
[4] = tested on: MCF7; assay: Growth inhibition of human MCF7 cells by sulforhodamine B assay
[5] = Growth inhibition of human NCI-ADR-RES cells assessed as cell growth at 10^-4 M by sulforhodamine B assay; settings: read-out: Activity
[6] = tested on: SK-MEL-5; assay: Growth inhibition of human SK-MEL-5 cells assessed as cell growth at 10^-4 M by sulforhodamine B assay; settings: read-out: Activity
[7] = tested on: UO-31; assay: Growth inhibition of human UO31 cells by sulforhodamine B assay
[8] = tested on: DU-145; assay: Growth inhibition of human DU145 cells assessed as cell growth at 10^-6 M by sulforhodamine B assay; settings: read-out: Activity
[9] = tested on: SW-620; assay: Growth inhibition of human SW620 cells assessed as cell growth at 10^-7 M by sulforhodamine B assay; settings: read-out: Activity
[10] = tested on: OVCAR-4; assay: Growth inhibition of human OVCAR4 cells assessed as cell growth at 10^-7 M by sulforhodamine B assay; settings: read-out: Activity
[11] = tested on: ACHN; assay: Growth inhibition of human ACHN cells assessed as cell growth at 10^-8 M by sulforhodamine B assay; settings: read-out: Activity
[12] = tested on: KM12; assay: Growth inhibition of human KM12 cells assessed as cell growth at 10^-7 M by sulforhodamine B assay; settings: read-out: Activity
[13] = tested on: HOP-92; assay: Growth inhibition of human HOP92 cells assessed as cell growth at 10^-4 M by sulforhodamine B assay; settings: read-out: Activity
[14] = tested on: SK-MEL-5; assay: Growth inhibition of human SK-MEL-5 cells assessed as cell growth at 10^-6 M by sulforhodamine B assay; settings: read-out: Activity
[15] = tested on: MDA-MB-468; assay: Growth inhibition of human MDA-MB-468 cells assessed as cell growth at 10^-6 M by sulforhodamine B assay; settings: read-out: Activity
[16] = tested on: HL-60(TB); assay: Growth inhibition of human HL-60(TB) cells assessed as cell growth at 10^-6 M by sulforhodamine B assay; settings: read-out: Activity
[17] = tested on: COLO 205; assay: Growth inhibition of human COLO205 cells assessed as cell growth at 10^-4 M by sulforhodamine B assay; settings: read-out: Activity
[18] = tested on: OVCAR-4; assay: Growth inhibition of human OVCAR4 cells by sulforhodamine B assay
[19] = Growth inhibition of human NCI-ADR-RES cells assessed as cell growth at 10^-6 M by sulforhodamine B assay; settings: read-out: Activity
[20] = tested on: MCF7; assay: Growth inhibition of human MCF7 cells assessed as cell growth at 10^-4 M by sulforhodamine B assay; settings: read-out: Activity
[21] = tested on: 786-0; assay: Growth inhibition of human 786-0 cells assessed as cell growth at 10^-4 M by sulforhodamine B assay; settings: read-out: Activity
[22] = tested on: HOP-62; assay: Growth inhibition of human HOP62 cells assessed as cell growth at 10^-7 M by sulforhodamine B assay; settings: read-out: Activity
[23] = tested on: SF-295; assay: Growth inhibition of human SF295 cells by sulforhodamine B assay
[24] = tested on: BT-549; assay: Growth inhibition of human BT549 cells assessed as cell growth at 10^-4 M by sulforhodamine B assay; settings: read-out: Activity
[25] = tested on: MCF7; assay: Growth inhibition of human MCF7 cells assessed as cell growth at 10^-7 M by sulforhodamine B assay; settings: read-out: Activity
[26] = tested on: CCRF-CEM; assay: Growth inhibition of human CCRF-CEM cells assessed as cell growth at 10^-8 M by sulforhodamine B assay; settings: read-out: Activity
[27] = tested on: MOLT-4; assay: Growth inhibition of human MOLT4 cells by sulforhodamine B assay
[28] = tested on: T47D; assay: Growth inhibition of human T47D cells by sulforhodamine B assay
[29] = tested on: HCT-15; assay: Growth inhibition of human HCT15 cells assessed as cell growth at 10^-4 M by sulforhodamine B assay; settings: read-out: Activity
[30] = tested on: NCI-H226; assay: Growth inhibition of human NCI-H226 cells assessed as cell growth at 10^-7 M by sulforhodamine B assay; settings: read-out: Activity
[31] = tested on: CAKI-1; assay: Growth inhibition of human CAKI-1 cells assessed as cell growth at 10^-8 M by sulforhodamine B assay; settings: read-out: Activity
[32] = tested on: A549; assay: Growth inhibition of human A549/ATCC cells assessed as cell growth at 10^-6 M by sulforhodamine B assay; settings: read-out: Activity
[33] = tested on: HOP-92; assay: Growth inhibition of human HOP92 cells assessed as cell growth at 10^-6 M by sulforhodamine B assay; settings: read-out: Activity
[34] = tested on: NCI-H322M; assay: Growth inhibition of human NCI-H322M cells assessed as cell growth at 10^-4 M by sulforhodamine B assay; settings: read-out: Activity
[35] = tested on: UO-31; assay: Growth inhibition of human UO31 cells assessed as cell growth at 10^-7 M by sulforhodamine B assay; settings: read-out: Activity
[36] = tested on: SN12C; assay: Growth inhibition of human SN12C cells assessed as cell growth at 10^-7 M by sulforhodamine B assay; settings: read-out: Activity
[37] = tested on: MDA-MB-231; assay: Growth inhibition of human MDA-MB-231 cells assessed as cell growth at 10^-7 M by sulforhodamine B assay; settings: read-out: Activity
[38] = tested on: HT-29; assay: Growth inhibition of human HT-29 cells assessed as cell growth at 10^-8 M by sulforhodamine B assay; settings: read-out: Activity
[39] = tested on: OVCAR-4; assay: Growth inhibition of human OVCAR4 cells assessed as cell growth at 10^-4 M by sulforhodamine B assay; settings: read-out: Activity
[40] = tested on: MDA-MB-435; assay: Growth inhibition of human MDA-MB-435 cells by sulforhodamine B assay
[41] = read-out: LC50 (the source's name)
[42] = read-out: pLC50 (the source's name) (converted)

Work on `CC1(C)C[C@@H](O)[C@]2(C(=O)O)CC[C@]3(C)C(=CC[C@@H]4[C@@]5(C)C/C(=C\C=C\c6ccccc6)C(=O)C(C)(C)[C@@H]5CC[C@]43C)[C@@H]2C1` yielded a growth at 0.1 µM [1] of 112%, a growth at 0.1 µM [2] of 102% and a growth at 1 µM [3] of 108%. For the same compound, the GI50 ([4]; read-out: GI50) was 3.23 µM, the CC50 [4, 41] was 56.9 µM and the TGI ([4]; read-out: TGI) was 12.3 µM. It also gave a GI50 ([4]; read-out: pGI50 (converted)) of 3.24 µM, a CC50 [4, 42] of 57.5 µM and a TGI ([4]; read-out: pTGI (converted)) of 12.3 µM. The growth at 100 µM [5] was -87%, the growth at 100 µM [6] was -99% and the GI50 ([7]; read-out: GI50) was 3.39 µM. The CC50 [7, 41] was 45.9 µM, the TGI ([7]; read-out: TGI) was 13.6 µM and the GI50 ([7]; read-out: pGI50 (converted)) was 3.39 µM. For the same compound, the CC50 [7, 42] was 45.7 µM, the TGI ([7]; read-out: pTGI (converted)) was 13.5 µM and the growth at 1 µM [8] was 101%. The growth at 0.1 µM [9] was 97%, the growth at 0.1 µM [10] was 96% and the growth at 0.01 µM [11] was 97%. It also gave a growth at 0.1 µM [12] of 99%, a growth at 100 µM [13] of -76% and a growth at 1 µM [14] of 95%. The growth at 1 µM [15] was 92%, the growth at 1 µM [16] was 112% and the growth at 100 µM [17] was -61%. The GI50 ([18]; read-out: GI50) was 3.85 µM, the CC50 [18, 41] was 40.2 µM and the TGI ([18]; read-out: TGI) was 15.4 µM. For the same compound, the GI50 ([18]; read-out: pGI50 (converted)) was 3.89 µM, the CC50 [18, 42] was 39.8 µM and the TGI ([18]; read-out: pTGI (converted)) was 15.5 µM. It also gave a growth at 1 µM [19] of 87%, a growth at 100 µM [20] of -68% and a growth at 100 µM [21] of -85%. For the same compound, the growth at 0.1 µM [22] was 91%, the GI50 ([23]; read-out: GI50) was 2.4 µM and the CC50 [23, 41] was 49.8 µM. It also gave a TGI ([23]; read-out: TGI) of 7.56 µM, a GI50 ([23]; read-out: pGI50 (converted)) of 2.4 µM and a CC50 [23, 42] of 50.1 µM. The TGI ([23]; read-out: pTGI (converted)) was 7.59 µM, the growth at 100 µM [24] was -72% and the growth at 0.1 µM [25] was 92%. The growth at 0.01 µM [26] was 95%, the GI50 ([27]; read-out: GI50) was 2.48 µM and the CC50 [27, 41] was greater than 100 µM. The TGI ([27]; read-out: TGI) was 7.84 µM, the GI50 ([27]; read-out: pGI50 (converted)) was 2.45 µM and the CC50 [27, 42] was greater than 100 µM. It also gave a TGI ([27]; read-out: pTGI (converted)) of 7.76 µM, a GI50 ([28]; read-out: GI50) of 3.83 µM and a CC50 [28, 41] greater than 100 µM. The TGI ([28]; read-out: TGI) was 18.4 µM, the GI50 ([28]; read-out: pGI50 (converted)) was 3.8 µM and the CC50 [28, 42] was greater than 100 µM. It also gave a TGI ([28]; read-out: pTGI (converted)) of 18.2 µM, a growth at 100 µM [29] of -80% and a growth at 0.1 µM [30] of 92%. The growth at 0.01 µM [31] was 94%, the growth at 1 µM [32] was 88% and the growth at 1 µM [33] was 76%. For the same compound, the growth at 100 µM [34] was -78%, the growth at 0.1 µM [35] was 94% and the growth at 0.1 µM [36] was 98%. The growth at 0.1 µM [37] was 102%, the growth at 0.01 µM [38] was 104% and the growth at 100 µM [39] was -97%. The GI50 ([40]; read-out: GI50) was 3.28 µM, the CC50 [40, 41] was greater than 100 µM and the TGI ([40]; read-out: TGI) was 14.4 µM. The GI50 ([40]; read-out: pGI50 (converted)) was 3.31 µM, the CC50 [40, 42] was greater than 100 µM and the TGI ([40]; read-out: pTGI (converted)) was 14.5 µM.
